Measured values from PMC5706701, “Development of a homogenous high-throughput assay for inositol hexakisphosphate kinase 1 activity” (PLoS ONE, 2017).
Where a name gives a salt, the structure may show the parent alone. Read-outs that look alike come from different tables or passages of the source.

Biological target: T1, Human IP6K1 (Homo sapiens, UniProt Q92551)
T1 construct: GST (N, cleaved yes); made in house; host or cells: C43 E. coli, pGEX-6P-2
Experiment: IP6K1 high-throughput screen of the Sigma LOPAC (ADP-Glo Max, single point);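 further: final compound concentration 10µM in 5% DMSO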
Assay type: biochemical

[1] = Sigma LOPAC single-point screen, ADP-Glo Max raw signal per well
[2] = Sigma LOPAC single-point screen, Z-score from plate average and StDev
[3] = LOPAC single-point screen, ADP-Glo Max raw signal per well
[4] = LOPAC single-point screen, Z-score against plate average and StDev
[5] = LOPAC single-point screen, Z-score from raw signal with plate average and StDev
[6] = LOPAC single-point screen, ADP-Glo Max luminescence raw signal per well
[7] = LOPAC single-point screen, Z-score from plate average and StDev
[8] = LOPAC single-point screen, Z-score relative to plate average and StDev

T1 sequence (Q92551 whole entry): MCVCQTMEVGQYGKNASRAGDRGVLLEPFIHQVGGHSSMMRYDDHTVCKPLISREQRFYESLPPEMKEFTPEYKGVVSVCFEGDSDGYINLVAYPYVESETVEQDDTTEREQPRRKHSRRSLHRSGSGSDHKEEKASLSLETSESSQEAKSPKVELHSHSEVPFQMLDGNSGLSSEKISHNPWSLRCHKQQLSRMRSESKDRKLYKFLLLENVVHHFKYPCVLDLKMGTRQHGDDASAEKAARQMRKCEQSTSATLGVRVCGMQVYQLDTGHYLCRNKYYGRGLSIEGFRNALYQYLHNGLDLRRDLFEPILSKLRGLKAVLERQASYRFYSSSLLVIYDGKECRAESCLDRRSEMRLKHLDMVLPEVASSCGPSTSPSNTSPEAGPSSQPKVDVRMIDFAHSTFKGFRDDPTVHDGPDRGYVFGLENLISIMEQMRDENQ

COCCCC/C(=N\OCCN)c1ccc(C(F)(F)F)cc1 [Fluvoxamine maleate]
Raw Signal [1]: 56948
Z-score [2]: 0.3617

N[C@@H](Cn1oc(=O)[nH]c1=O)C(=O)O [(+)-Quisqualic acid]
Raw Signal [1]: 59992
Z-score [2]: 0.7709

Cc1cc(C(C)(C)C)cc(C)c1CC1=NCCN1 [Xylometazoline hydrochloride]
Raw Signal [3]: 57404
Z-score [4]: 0.2681

COC(=O)c1cc2c(cn1)[nH]c1ccccc12 [Methyl beta-carboline-3-carboxylate]
Raw Signal [3]: 53830
Z-score [5]: -0.2715

COc1cc(C=C(C#N)C#N)cc(O)c1O [Tyrphostin AG 34]
Raw Signal [3]: 55934
Z-score [4]: -0.01745

Cc1cnc(NC(=O)C2=C(O)c3ccccc3S(=O)(=O)N2C)s1 [Meloxicam sodium]
Raw Signal [3]: 55155
Z-score [4]: 0.128

CCOC(=O)C1=C(C)NC(C)=C(C(=O)OC)C1c1cccc([N+](=O)[O-])c1 (centres unmarked) [Nitrendipine]
Raw Signal [1]: 58110
Z-score [2]: 0.6245

CC[C@H]1CN2CCc3cc(OC)c(OC)cc3[C@@H]2C[C@@H]1C[C@H]1NCCc2cc(OC)c(OC)cc21 [Emetine dihydrochloride hydrate]
Raw Signal [3]: 52998
Z-score [5]: -0.4405

O=C(Cc1ccc(Cl)c(Cl)c1)OCCN1CCCC1 [AC 915 oxalate]
Raw Signal [3]: 57662
Z-score [4]: -0.04423

C[C@@]12C(=O)OC(=O)[C@]1(C)[C@H]1CC[C@@H]2O1 [Cantharidin]
Raw Signal [1]: 61165
Z-score [2]: 0.5727

O=S(=O)(c1cccc2cnccc12)N1CCNCC1 [HA-100]
Raw Signal [1]: 57010
Z-score [2]: 0.3743

N#Cc1cc2nc([O-])c([O-])nc2cc1[N+](=O)[O-].[Na+].[Na+] [CNQX disodium]
Raw Signal [3]: 53180
Z-score [5]: -0.4035

CC1(C)NC(=O)N(c2ccc([N+](=O)[O-])c(C(F)(F)F)c2)C1=O [Nilutamide]
Raw Signal [1]: 62066
Z-score [2]: 1.289

Cc1nnc(SCC2=C(C(=O)O)N3C(=O)[C@@H](NC(=O)Cn4cnnn4)[C@H]3SC2)s1 [Cefazolin sodium]
Raw Signal [3]: 59148
Z-score [4]: 0.2175

NCC(O)(CS(=O)(=O)O)c1ccc(Cl)cc1 (centres unmarked) [2-Hydroxysaclofen]
Raw Signal [1]: 61124
Z-score [2]: 0.5655

CCCCCCCCCCCCCCCCCC(=O)NCC(COP(=O)([O-])OCC[N+](C)(C)C)OCC (racemic)
Raw Signal [6]: 62966
Z-score [7]: 1.584

Cl.Cl.Oc1ccc2c3c1O[C@H]1c4[nH]c5c(c4C[C@@]4(O)[C@@H](C2)N(CC2CC2)CC[C@]314)C[C@@]1(O)[C@H]2Cc3ccc(O)c4c3[C@@]1(CCN2CC1CC1)[C@H]5O4 [nor-Binaltorphimine dihydrochloride]
Raw Signal [1]: 56488
Z-score [2]: 0.3519

C#CCN[C@H](C)Cc1ccccc1.Cl [R-(-)-Desmethyldeprenyl hydrochloride]
Raw Signal [6]: 52026
Z-score [8]: -0.6379

Br.C=CCN1CCc2cc(O)c(O)cc2C(c2ccc(O)cc2)C1 (racemic) [(±)-SKF 38393, N-allyl-, hydrobromide]
Raw Signal [3]: 54138
Z-score [5]: -0.3664

CC(N)Cc1c[nH]c2ccc(O)cc12.O=C(O)/C=C\C(=O)O (stereo not drawn) [alpha-Methyl-5-hydroxytryptamine maleate]
Z-score [4]: 0.02915

Cl.c1ccc([C@H]2CN3CCSC3=N2)cc1 [(-)-Tetramisole hydrochloride]
Raw Signal: 55029
Z-score: 0.1068

Cl.NCCCCNS(=O)(=O)c1ccc2c(Cl)cccc2c1
Raw Signal [3]: 59537
Z-score [4]: 0.286

Cc1ccccc1N1CCN(S(=O)(=O)CC23CCC(CC2NC(=O)C(N)CCS(C)(=O)=O)C3(C)C)CC1 [L-368,899]
Raw Signal [6]: 50329
Z-score [8]: -0.6829

CCN(CC)CCNC(=O)c1cc(S(C)(=O)=O)ccc1OC [Tiapride hydrochloride]
Raw Signal [1]: 58277
Z-score [2]: 0.4378

Br.CCSC(=N)N [S-Ethylisothiourea hydrobromide]
Raw Signal [3]: 55596
Z-score [4]: 0.08712

Nc1c[n+](N2CCOCC2)no1.[Cl-] [3-Morpholinosydnonimine hydrochloride]
Raw Signal [3]: 53200
Z-score [5]: -0.2005

COc1[nH]c2ccc(F)cc2c1C(=O)OCC1CCN(CCNS(C)(=O)=O)CC1.NS(=O)(=O)O [GR 125487 sulfamate salt]
Raw Signal [6]: 51618
Z-score [8]: -0.7208

CC1CN(S(=O)(=O)c2cccc3cnccc23)CCN1.Cl.Cl (centres unmarked)
Raw Signal [3]: 53944
Z-score [4]: -0.07553

CN1CCN(C2=Nc3cc(Cl)ccc3Nc3ccccc32)CC1 [Clozapine]
Raw Signal [6]: 54825
Z-score [8]: -0.5439

CCN(CC)c1ncnc2c1ncn2[C@@H]1O[C@H](COP(=O)([O-])OP(=O)([O-])C(Br)(Br)P(=O)([O-])O)[C@@H](O)[C@H]1O.[Na+].[Na+].[Na+] [ARL 67156 trisodium salt]
Raw Signal [6]: 54051
Z-score [8]: -0.6802

CC[C@@H]1C(=O)OC[C@@H]1Cc1cncn1C [Pilocarpine nitrate]
Raw Signal [1]: 59730
Z-score [2]: 0.8967

NC(=O)C(=O)O [Sodium Oxamate]
Raw Signal [3]: 56283
Z-score [4]: 0.3175

O=C(O)CNC(=O)C(CS)Cc1ccccc1 (racemic) [DL-Thiorphan]
Raw Signal [3]: 55327
Z-score [5]: -0.1354

C/C(O)=C(\C#N)C(=O)Nc1cc(Br)ccc1Br [LFM-A13]
Raw Signal [1]: 58610
Z-score [2]: 0.7085

Cc1c(OCC(F)(F)F)ccnc1C[S+]([O-])c1nc2ccccc2[nH]1 (centres unmarked) [Lansoprazole]
Raw Signal [3]: 53701
Z-score [5]: -0.1164

O=C1c2c(O)ccc(O)c2C(=O)c2c(NCCNCCO)ccc(NCCNCCO)c21 [Mitoxantrone]
Raw Signal [6]: 48302
Z-score [8]: -1.024

JL-18
Raw Signal [6]: 64215
Z-score [7]: 1.65

Nc1nc(Cl)nc2c1ncn2[C@@H]1O[C@H](COP(=O)(O)OP(=O)(O)OP(=O)(O)O)C(O)C1O (stereo in doubt)
Raw Signal [6]: 49196
Z-score [8]: -1.213

CCn1c(=O)[nH]c2cc(Cl)c(Cl)cc21 [DCEBIO]
Raw Signal [6]: 52025
Z-score [8]: -0.6381

COC(=O)c1c(C)[nH]c(C)c1C(=O)c1ccccc1Cc1ccccc1 [FPL 64176]
Raw Signal [3]: 56544
Z-score [4]: 0.2796

CN(C)c1nc(N)c(C(=O)NC(=N)N)nc1Cl [5-(N,N-Dimethyl)amiloride hydrochloride]
Raw Signal [3]: 56769
Z-score [5]: -0.2015

O=C(O)C1CN(CCCP(=O)(O)O)CCN1 (racemic) [(±)-CPP]
Raw Signal [1]: 59493
Z-score [2]: 0.8786

NC(CO)C(=O)NNCc1ccc(O)c(O)c1O (centres unmarked) [Benserazide hydrochloride]
Raw Signal [6]: 50551
Z-score [8]: -1.297

CC(C)Oc1cccnc1N(C)C1CCN(Cc2ccccc2)CC1.O=C(O)/C=C\C(=O)O [U-101958 maleate]
Raw Signal [6]: 65094
Z-score [7]: 1.762

Br.CCCN(CCC)C1CCc2ccc(O)cc2C1 (racemic) [(±)-7-Hydroxy-DPAT hydrobromide]
Raw Signal [3]: 55055
Z-score [4]: -0.02275
